Measured values reported in article PMC11290450, “Isocyanides inhibit bacterial pathogens by covalent targeting of essential metabolic enzymes” (Chemical Science, 2024).
In brackets after ≈: the same amount, converted by molar mass.

Columns and labels:
cytochrome P450 2C9 [1] = biological target: T1, cytochrome P450 2C9 (Homo sapiens, UniProt P11712); assay: CYP inhibition assay (Table S3); type: biochemical
T1 construct: gene CYP2C9

cytochrome P450 3A4 [2] = biological target: T2, cytochrome P450 3A4 (Homo sapiens, UniProt P08684); assay: CYP inhibition assay (Table S3); type: biochemical
T2 construct: gene CYP3A4

cytochrome P450 1A2 [3] = biological target: T3, cytochrome P450 1A2 (Homo sapiens, UniProt P05177); assay: CYP inhibition assay (Table S3); type: biochemical
T3 construct: gene CYP1A2

[4] = biological target: T4, glutamine–fructose-6-phosphate aminotransferase (GlmS) (Staphylococcus aureus, UniProt Q2FWA0); assay: GDH-coupled glutaminase assay; intact protein MS (+[…] Da, truncated adduct); competitive gel-based IA-alkyne labeling; isoDTB-ABPP; type: biochemical
T4 construct: recombinant wild-type GlmS

cytochrome P450 2D6 [5] = biological target: T5, cytochrome P450 2D6 (Homo sapiens, UniProt P10635); assay: CYP inhibition assay (Table S3); type: biochemical
T5 construct: gene CYP2D6

E. coli K12 [6] = test system: T6, E. coli K12; assay: microbe, parasite or virus in culture; set-up: broth microdilution MIC, visible growth (turbidity or pellet); details: Escherichia coli, K12, 20 h
T6 construct: K12
Experimental: (§1) faecalis, E. faecium. S. epidermidis, S. pyogenes and S. pneumonia strains were cultivated in brain heart infusion medium (BHB, 7.5 g/L brain infusion, 10 g/L heart infusion, 10 g/L casein peptone, 5 g/L NaCl, 2.5 g/L Na2HPO4, 2 g/L glucose). Cell culture Cell culture media and supplements were purchased from Merck. HeLa cells were cultured in Dulbecco’s Modified Eagle Medium (DMEM, high glucose, 4.5 g/L) supplemented with 10% fetal bovine serum (FBS) and 2 mM L-glutamine at 37 °C in a 5% CO2 atmosphere. Accutase (Merck) was used for cell detachment. Minimum inhibitory concentration (MIC) The minimum inhibitory concentration (MIC) was determined by using the broth microdilution assay. 1 µL of compound stock solution in DMSO was pipetted to the wells of row 1 of a sterile flat bottom 96-well plate containing 100 µL growth medium and thoroughly mixed. Subsequently, a 1:1 serial dilution was performed in the growth medium from row 1 to row 10. […] Plates were incubated for 20 h (37 °C, 200 rpm; for Streptococcus pneumoniae DSM30104 and Streptococcus pyogenes ATCC700294: 5% CO2 atmosphere, 37 °C without shaking), and the dilution series were analyzed for microbial growth, indicated by turbidity and/or a pellet. […] MIC values were determined in technical triplicates and confirmed in two or three independent biological experiments. […]

S. aureus USA300 Lac = test system: T7, S. aureus USA300 Lac; assay: microbe, parasite or virus in culture; set-up: broth microdilution MIC, visible growth (turbidity or pellet); details: Staphylococcus aureus, USA300, 20 h
T7 construct: USA300 LAC
Experimental: as §1

A. baumannii 5075 = test system: T8, A. baumannii 5075; assay: microbe, parasite or virus in culture; set-up: broth microdilution MIC, visible growth (turbidity or pellet); details: Acinetobacter baumannii, 5075, 20 h
T8 construct: AB5075
Experimental: (§2) faecalis, E. faecium. S. epidermidis, S. pyogenes and S. pneumonia strains were cultivated in brain heart infusion medium (BHB, 7.5 g/L brain infusion, 10 g/L heart infusion, 10 g/L casein peptone, 5 g/L NaCl, 2.5 g/L Na2HPO4, 2 g/L glucose). Cell culture Cell culture media and supplements were purchased from Merck. HeLa cells were cultured in Dulbecco’s Modified Eagle Medium (DMEM, high glucose, 4.5 g/L) supplemented with 10% fetal bovine serum (FBS) and 2 mM L-glutamine at 37 °C in a 5% CO2 atmosphere. Accutase (Merck) was used for cell detachment. Minimum inhibitory concentration (MIC) The minimum inhibitory concentration (MIC) was determined by using the broth microdilution assay. 1 µL of compound stock solution in DMSO was pipetted to the wells of row 1 of a sterile flat bottom 96-well plate containing 100 µL growth medium and thoroughly mixed. Subsequently, a 1:1 serial dilution was performed in the growth medium from row 1 to row 10. 50 µL of bacterial suspension (1:10,000 dilution of an overnight culture in the respective growth medium) was added to each well containing compound and the growth control (row 11). A sterile control containing only medium was included (row 12). The final volume was 100 µL per well. Plates were incubated for 20 h (37 °C, 200 rpm; […] ATCC700294: 5% CO2 atmosphere, 37 °C without shaking), and the dilution series were analyzed for microbial growth, indicated by turbidity and/or a pellet. The lowest concentration in the dilution series at which no growth of bacteria could be observed was defined as the MIC of the compound. MIC values were determined in technical triplicates and confirmed in two or three independent biological experiments. The [compound left out] library was screened once in technical triplicates. The MIC is reported as mean of technical triplicates. If the MIC varied between biological replicates, concentration ranges are indicated.

A. baumannii ATCC 19606 = test system: T9, A. baumannii ATCC 19606; assay: microbe, parasite or virus in culture; set-up: broth microdilution MIC, visible growth (turbidity or pellet); details: Acinetobacter baumannii, ATCC19606, 20 h
T9 construct: ATCC 19606
Experimental: as §2

B. subtilis 168 = test system: T10, B. subtilis 168; assay: microbe, parasite or virus in culture; set-up: broth microdilution MIC, visible growth (turbidity or pellet); details: Bacillus subtilis, 168, 20 h
T10 construct: 168
Experimental: as §2

E. coli K12 [7] = test system: T6, E. coli K12; assay: microbe, parasite or virus in culture; set-up: broth microdilution MIC, visible growth (turbidity or pellet); details: Escherichia coli, K12, 20 h; remark: listed apart in the source
Experimental: as §2

E. coli UTI89 = test system: T11, E. coli UTI89; assay: microbe, parasite or virus in culture; set-up: broth microdilution MIC, visible growth (turbidity or pellet); details: Escherichia coli, UTI89, 20 h
T11 construct: UTI89
Experimental: as §2

E. faecalis V583 = test system: T12, E. faecalis V583; assay: microbe, parasite or virus in culture; set-up: broth microdilution MIC, visible growth (turbidity or pellet); details: Enterococcus faecalis, V583, 20 h
T12 construct: V583
Experimental: as §2

E. faecium DSM17050 = test system: T13, E. faecium DSM17050; assay: microbe, parasite or virus in culture; set-up: broth microdilution MIC, visible growth (turbidity or pellet); details: Enterococcus faecium, DSM17050, 20 h
T13 construct: DSM 17050
Experimental: as §2

K. pneumoniae DSM 30104 = test system: T14, K. pneumoniae DSM 30104; assay: microbe, parasite or virus in culture; set-up: broth microdilution MIC, visible growth (turbidity or pellet); details: Klebsiella pneumoniae, DSM30104, 20 h
T14 construct: DSM 30104
Experimental: as §2

L. monocytogenes EGD-e = test system: T15, L. monocytogenes EGD-e; assay: microbe, parasite or virus in culture; set-up: broth microdilution MIC, visible growth (turbidity or pellet); details: Listeria monocytogenes, 20 h
T15 construct: EGD-e
Experimental: as §2

P. aeruginosa PAO1 = test system: T16, P. aeruginosa PAO1; assay: microbe, parasite or virus in culture; set-up: broth microdilution MIC, visible growth (turbidity or pellet); details: Pseudomonas aeruginosa, PAO1, 20 h
T16 construct: PAO1
Experimental: as §2

S. aureus NCTC 8325 = test system: T17, S. aureus NCTC 8325; assay: microbe, parasite or virus in culture; set-up: broth microdilution MIC, visible growth (turbidity or pellet); details: Staphylococcus aureus, NCTC8325, 20 h
T17 construct: NCTC 8325
Experimental: as §2

S. aureus USA300 LAC J2 = test system: T18, S. aureus USA300 LAC J2; assay: microbe, parasite or virus in culture; set-up: broth microdilution MIC, visible growth (turbidity or pellet); details: Staphylococcus aureus, USA300, 20 h
T18 construct: USA300 LAC JE2
Experimental: as §2

S. epidermidis RP62 A = test system: T19, S. epidermidis RP62 A; assay: microbe, parasite or virus in culture; set-up: broth microdilution MIC, visible growth (turbidity or pellet); details: Staphylococcus epidermidis, RP62A, 20 h
T19 construct: RP62A
Experimental: as §2

S. pneumoniae DSM 20567 = test system: T20, S. pneumoniae DSM 20567; assay: microbe, parasite or virus in culture; set-up: broth microdilution MIC, visible growth (turbidity or pellet); details: Streptococcus pneumoniae, DSM20567, 20 h
T20 construct: DSM 20567
Experimental: as §2

S. pyogenes ATCC 700294 = test system: T21, S. pyogenes ATCC 700294; assay: microbe, parasite or virus in culture; set-up: broth microdilution MIC, visible growth (turbidity or pellet); details: Streptococcus pyogenes, ATCC700294, 20 h
T21 construct: ATCC 700294
Experimental: as §2

S. typhimurium LT2 = test system: T22, S. typhimurium LT2; assay: microbe, parasite or virus in culture; set-up: broth microdilution MIC, visible growth (turbidity or pellet); details: Salmonella enterica, TYPHIMURIUM, 20 h
T22 construct: LT2
Experimental: as §2

cytochrome P450 1A2 [8] = biological target: T3, cytochrome P450 1A2; assay: biochemical; set-up: CYP inhibition in human liver microsomes, conversion of isoform-specific substrates; details: substrate phenacetin; liver microsomes
Experimental: (§3) To cover a broad range of structurally diverse compounds, we gathered commercially available primary, secondary, tertiary, vinyl and aromatic [compound left out] for antibacterial testing (Table S1 ^†). […] The minimum inhibitory concentration (MIC) of forty-two compounds was determined in Gram-positive Staphylococcus aureus and Gram-negative Escherichia coli cells up to 50 μM. […] The compound was tested against a panel of Gram-positive and Gram-negative pathogens. Although no antibiotic effects against Gram-negative strains were observed, Bacillus subtilis, Listeria monocytogenes, Staphylococcus epidermidis, and Streptococcus pneumoniae could be inhibited at low micromolar concentrations of I16 (Table S2 ^†). […] This was further corroborated by evaluation I16 in four different human cytochrome P450 enzymes (CYPs).

cytochrome P450 2C9 [9] = biological target: T1, cytochrome P450 2C9; assay: biochemical; set-up: CYP inhibition in human liver microsomes, conversion of isoform-specific substrates; details: substrate diclofenac; liver microsomes
Experimental: as §3

cytochrome P450 2D6 [10] = biological target: T5, cytochrome P450 2D6; assay: biochemical; set-up: CYP inhibition in human liver microsomes, conversion of isoform-specific substrates; details: substrate dextromethorphan; liver microsomes
Experimental: as §3

cytochrome P450 3A4 [11] = biological target: T2, cytochrome P450 3A4; assay: biochemical; set-up: CYP inhibition in human liver microsomes, conversion of isoform-specific substrates; details: substrate midazolam; liver microsomes
Experimental: as §3

[12] = biological target: T4, glutamine–fructose-6-phosphate aminotransferase (GlmS); assay: GDH-coupled glutaminase assay (turnover reduced to about […] at […]); type: biochemical; details: read-out: % residual turnover at 100 μM

T2 sequence (P08684 2-503): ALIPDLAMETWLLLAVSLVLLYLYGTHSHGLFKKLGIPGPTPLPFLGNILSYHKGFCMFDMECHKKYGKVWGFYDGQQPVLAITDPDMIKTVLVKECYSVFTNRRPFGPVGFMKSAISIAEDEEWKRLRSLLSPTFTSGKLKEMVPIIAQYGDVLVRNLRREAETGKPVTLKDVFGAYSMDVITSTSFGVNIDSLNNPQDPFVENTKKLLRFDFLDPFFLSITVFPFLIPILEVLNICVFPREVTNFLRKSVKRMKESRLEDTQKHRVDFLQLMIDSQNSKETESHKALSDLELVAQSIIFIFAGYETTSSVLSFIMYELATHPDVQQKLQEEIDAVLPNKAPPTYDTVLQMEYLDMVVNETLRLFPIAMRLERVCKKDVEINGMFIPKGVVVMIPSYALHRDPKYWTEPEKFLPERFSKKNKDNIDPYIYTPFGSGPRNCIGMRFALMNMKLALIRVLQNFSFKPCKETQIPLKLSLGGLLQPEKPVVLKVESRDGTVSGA
T1 sequence (P11712 whole entry): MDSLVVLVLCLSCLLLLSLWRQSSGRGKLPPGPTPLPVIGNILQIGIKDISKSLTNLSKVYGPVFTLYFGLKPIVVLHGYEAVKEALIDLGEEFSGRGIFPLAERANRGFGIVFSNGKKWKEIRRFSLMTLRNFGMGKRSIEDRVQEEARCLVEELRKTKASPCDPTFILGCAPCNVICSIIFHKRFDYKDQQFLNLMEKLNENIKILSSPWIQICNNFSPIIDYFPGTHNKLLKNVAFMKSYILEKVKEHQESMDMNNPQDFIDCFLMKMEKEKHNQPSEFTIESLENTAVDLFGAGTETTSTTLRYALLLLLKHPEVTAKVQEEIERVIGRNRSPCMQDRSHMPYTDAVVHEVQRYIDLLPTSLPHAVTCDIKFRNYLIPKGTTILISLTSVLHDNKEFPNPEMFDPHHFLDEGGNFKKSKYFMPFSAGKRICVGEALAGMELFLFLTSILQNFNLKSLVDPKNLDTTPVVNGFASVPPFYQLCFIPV
T5 sequence (P10635 whole entry): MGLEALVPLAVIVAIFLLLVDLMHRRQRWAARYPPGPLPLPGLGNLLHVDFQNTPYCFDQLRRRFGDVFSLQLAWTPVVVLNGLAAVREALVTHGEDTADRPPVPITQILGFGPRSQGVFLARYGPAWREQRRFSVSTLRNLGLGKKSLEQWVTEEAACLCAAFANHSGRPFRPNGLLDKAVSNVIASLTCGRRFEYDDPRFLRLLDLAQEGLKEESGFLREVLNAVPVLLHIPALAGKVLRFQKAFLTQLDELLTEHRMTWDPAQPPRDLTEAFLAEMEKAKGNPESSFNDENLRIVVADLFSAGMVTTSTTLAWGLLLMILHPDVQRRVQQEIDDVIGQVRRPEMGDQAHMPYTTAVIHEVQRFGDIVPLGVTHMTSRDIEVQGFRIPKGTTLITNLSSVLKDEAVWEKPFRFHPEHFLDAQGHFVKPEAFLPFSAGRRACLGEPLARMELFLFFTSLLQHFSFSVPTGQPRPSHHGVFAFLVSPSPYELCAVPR
T3 sequence (P05177 2-516): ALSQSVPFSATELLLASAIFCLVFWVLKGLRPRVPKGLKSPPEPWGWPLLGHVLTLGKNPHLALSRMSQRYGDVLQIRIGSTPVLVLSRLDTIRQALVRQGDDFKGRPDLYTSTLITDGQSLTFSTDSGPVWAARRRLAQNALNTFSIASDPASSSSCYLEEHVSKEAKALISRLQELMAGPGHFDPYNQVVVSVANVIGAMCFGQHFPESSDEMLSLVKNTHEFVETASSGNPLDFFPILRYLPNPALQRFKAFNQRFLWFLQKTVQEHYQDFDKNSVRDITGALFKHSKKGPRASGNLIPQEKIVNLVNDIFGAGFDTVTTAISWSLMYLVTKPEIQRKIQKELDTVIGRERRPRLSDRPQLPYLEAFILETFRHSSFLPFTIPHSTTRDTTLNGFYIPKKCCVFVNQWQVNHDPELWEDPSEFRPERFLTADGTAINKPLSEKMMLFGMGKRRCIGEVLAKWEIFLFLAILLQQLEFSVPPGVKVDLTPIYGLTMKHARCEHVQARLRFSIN
T4 sequence (Q2FWA0 entry or part of it): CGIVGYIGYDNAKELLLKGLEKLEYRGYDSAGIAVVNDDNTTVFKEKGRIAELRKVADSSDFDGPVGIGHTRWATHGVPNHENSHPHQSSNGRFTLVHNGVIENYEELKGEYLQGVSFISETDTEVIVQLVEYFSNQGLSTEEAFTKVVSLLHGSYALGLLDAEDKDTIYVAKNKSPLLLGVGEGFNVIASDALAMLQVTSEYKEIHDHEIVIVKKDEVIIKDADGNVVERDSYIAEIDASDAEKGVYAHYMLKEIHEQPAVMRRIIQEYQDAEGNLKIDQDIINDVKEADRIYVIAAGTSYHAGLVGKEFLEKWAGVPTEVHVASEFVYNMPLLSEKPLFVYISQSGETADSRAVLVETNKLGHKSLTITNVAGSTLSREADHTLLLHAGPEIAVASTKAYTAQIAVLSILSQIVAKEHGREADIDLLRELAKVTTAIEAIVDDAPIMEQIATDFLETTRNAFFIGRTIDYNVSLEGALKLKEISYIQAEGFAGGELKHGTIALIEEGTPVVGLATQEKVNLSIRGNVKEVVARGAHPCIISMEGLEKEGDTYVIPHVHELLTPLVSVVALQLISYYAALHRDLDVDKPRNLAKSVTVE

[C-]#[N+]C(c1ccc(F)cc1Cl)S(=O)(=O)c1ccc(C)cc1 (stereo not shown) [I16]
CYP inhibition assay (Table S3) (cytochrome P450 2C9 [1]): I16 inhibited all tested CYP isoforms (2C9, 2D6, 1A2, and 3A4) at nanomolar concentrations | CYP inhibition assay (Table S3) (cytochrome P450 3A4 [2]): I16 inhibited all tested CYP isoforms (2C9, 2D6, 1A2, and 3A4) at nanomolar concentrations | CYP inhibition assay (Table S3) (cytochrome P450 1A2 [3]): I16 inhibited all tested CYP isoforms (2C9, 2D6, 1A2, and 3A4) at nanomolar concentrations | GDH-coupled glutaminase assay; intact protein MS (+27.5 Da, truncated adduct); c [4]: glutamate release rate decreased concentration-dependently by I16, corroborating its interaction with the active site cysteine | CYP inhibition assay (Table S3) (cytochrome P450 2D6 [5]): I16 inhibited all tested CYP isoforms (2C9, 2D6, 1A2, and 3A4) at nanomolar concentrations | MIC (E. coli K12 [6]): > 50 µM | MIC (S. aureus USA300 Lac): 1.56 µM (≈ 0.505 µg/mL) | MIC (A. baumannii 5075): > 100 µM | MIC (A. baumannii ATCC 19606): > 100 µM | MIC (B. subtilis 168): 12.5 µM (≈ 4.05 µg/mL) | MIC (E. coli K12 [7]): > 100 µM | MIC (E. coli UTI89): > 100 µM | MIC (E. faecalis V583): > 100 µM | MIC (E. faecium DSM17050): > 100 µM | MIC (K. pneumoniae DSM 30104): > 100 µM | MIC (L. monocytogenes EGD-e): 1 µM (≈ 0.324 µg/mL) | MIC (P. aeruginosa PAO1): > 100 µM | MIC (S. aureus NCTC 8325): 0.78 to 1.56 µM (≈ 0.253 to 0.505 µg/mL) | MIC (S. aureus USA300 LAC J2): 1.56 µM (≈ 0.505 µg/mL) | MIC (S. epidermidis RP62 A): 1 µM (≈ 0.324 µg/mL) | MIC (S. pneumoniae DSM 20567): 1.56 µM (≈ 0.505 µg/mL) | MIC (S. pyogenes ATCC 700294): > 100 µM | MIC (S. typhimurium LT2): > 100 µM | IC50 (cytochrome P450 1A2 [8]): 60.8 ± 17 nM | IC50 (cytochrome P450 2C9 [9]): 144 ± 53 nM | IC50 (cytochrome P450 2D6 [10]): 59.3 ± 20 nM | IC50 (cytochrome P450 3A4 [11]): 26.1 ± 8 nM

NC(=O)CI [IA, iodoacetamide]
remaining activity at 100 µM [12]: ~35%
